One data set deals with rgRSV224 virus. As to the kind of experiment: microbe, parasite or virus in culture. The class given is cell-based, respiratory syncytial virus (RSV). The settings on record: human respiratory syncytial virus, HeLa, 72 h, read-out: WT activity EC50. The protocol: (§1) Black 96-well clear-bottom microtiter plates (Corning, Amsterdam, The Netherlands) were filled in duplicate using a customized robot system with serial 4-fold dilutions of compound in a final volume of 50 μl culture medium [RPMI medium without phenol red, 10% FBS, 0.04% gentamycin (50 mg/mL) and 0.5% DMSO]. Then, 100 μl of a HeLa cell suspension (5×10^4 cells/mL) in culture medium was added to each well followed by the addition of 50 μl rgRSV224 (MOI=0.02) virus in culture medium using a multidrop dispenser (Thermo Scientific, Erembodegem, Belgium). rgRSV224 virus is an engineered virus that includes an additional GFP gene (Hallak et al, 2000) and was in-licensed from the NIH (Bethesda, Md., USA). Medium, virus- and mock-infected controls were included in each test. Cells were incubated at 37° C. in a 5% CO2 atmosphere. Three days post-virus exposure, viral replication was quantified by measuring GFP expression in the cells by a MSM laser microscope (Tibotec, Beerse, Belgium). The EC50 was defined as the 50% inhibitory concentration for GFP expression. In parallel, compounds were incubated for three days in a set of white 96-well microtitier plates (Corning) and the cytotoxicity of compounds in HeLa cells was determined by measuring the ATP content of the cells using the ATPlite kit (PerkinElmer, Zaventem, Belgium) according to the manufacturer's instructions. The CC50 was defined as the 50% concentration for cytotoxicity.

Data set [1] is described as follows: Cytotoxicity in HeLa cells, ATP content (ATPlite kit). The class given is cell-based. To be noted: human, Table 1, three days incubation, read-out: Toxicity CC50. The protocol: as §1
On the technique in general: In ATP-based viability assays light output follows the ATP content of the culture.

One may read the EC50 as the concentration that produces a half-maximal response. By CC50 is commonly meant the concentration that lowers cell viability or growth by half.

As to `O=c1n(Cc2cc3ncccc3n2CCCCO)c2cnccc2n1C1CC1` [Compound P5, 1-Cyclopropyl-3-{[1-(4-hydroxybutyl)-1H-pyrrolo[3,2-b]pyridin-2-yl]methyl}-1,3-dihydro-2H-imidazo[4,5-c]pyridin-2-one], in the data set with rgRSV224 virus, the EC50 was 160 nM. In data set [1], the CC50 at 3 days is greater than 98.4 µM.

Regarding `O=c1n(Cc2cc3cnccc3n2CCCCO)c2cnccc2n1C1CC1` [Compound P1, 1-Cyclopropyl-3-{[1-(4-hydroxybutyl)-1H-pyrrolo[3,2-c]pyridin-2-yl]methyl}-1,3-dihydro-2H-imidazo[4,5-c]pyridin-2-one], in the data set with rgRSV224 virus, the EC50 was found to be 1.05 nM. Also, the CC50 at 3 days in data set [1] was greater than 98.4 µM.

Consider `CC(C)CCn1c(Cn2c(=O)n(C3CC3)c3ccncc32)cc2cccnc21` [Compound P10, 1-Cyclopropyl-3-{[1-(3-methylbutyl)-1H-pyrrolo[2,3-b]pyridin-2-yl]methyl}-1,3-dihydro-2H-imidazo[4,5-c]pyridin-2-one], for which the EC50 in the data set with rgRSV224 virus was greater than 98400 nM. Moreover, the CC50 at 3 days in data set [1] is greater than 98.4 µM.

With `O=c1n(Cc2cc3nc(O)ccc3n2CCCCO)c2cnccc2n1C1CC1` [Compound P8, 1-Cyclopropyl-3-{[5-hydroxy-1-(4-hydroxybutyl)-1H-pyrrolo[3,2-b]pyridin-2-yl]methyl}-1,3-dihydro-2H-imidazo[4,5-c]pyridin-2-one], the EC50 with rgRSV224 virus was 8460 nM. Also, the CC50 at 3 days in data set [1] is greater than 9.84 µM.

These data come from patent US9051317B2, “Azaindoles as respiratory syncytial virus antiviral agents” (JANSSEN SCIENCES IRELAND UC, priority 2010, dated 2015).
